# Assay results: PMC3762901, “Cyclic Peptide Inhibitors of the β-Sliding Clamp in Staphylococcus aureus” (PLoS ONE, 2013)
# Peptide text beside a SMILES is read from it.
# B1: cyclic DnaA1−86: spliced cyclic fragment of amino acids 1−86 (Domain I) of E. coli DnaA produced by SICLOPPS (protein, UniProt P03004 1-86, looked up, fragment)
# chain: MSLSLWQQCLARLQDELPATEFSMWIRPLQAELSDNTLALYAPNRFVLDWVRDKYLNNINGLLTSFCGADAPQLRFEVGTKPVTQT
# modifications: cyclized by SICLOPPS
# notes: spliced cyclic fragment of amino acids 1−86 (Domain I) of E. coli DnaA produced by SICLOPPS
# Experiments:
# [1] = tested on: recA-lacZ transcriptional fusion (SOS response); experiment: SOS induction, recA-lacZ β-galactosidase; format: cell-based, Staphylococcus aureus; conditions: 2 μg/ml; after 210 minutes; LB, 37°C
# Description: To test whether the cessation of DNA accumulation was accompanied by induction of the SOS response we measured the effects of both peptides on induction of the recA gene. Strain MTC157 contains a recA-lacZ transcriptional fusion in its chromosome. […] The level of induction was less that that observed for the DNA damaging agent mitomycin C (about 3-fold increase after 210 minutes). It is likely that both peptides results in malfunctioning of the replisome, and this provides the signal for SOS induction in these cells.
# Figure 6 Peptide III-5 and III-6 induces the SOS response in S. aureus. S. aureus strain MTH157 (recA::lacZ) was grown exponentially in LB medium at 37°C. At an optical density OD600 = 0.1, Mitomycin C or Peptides III-5/III-6 were added to final concentrations of 2 μg/ml or 50 μg/ml, respectively. At the times indicated, samples were taken and the level of β-galactosidase determined (Materials and Methods).
# [2] = tested on: S. aureus DnaN-DnaN interaction (β-sliding clamp dimerization); experiment: Bacterial two-hybrid (BTH) β-galactosidase assay of DnaN-DnaN interaction; format: cell-based, Staphylococcus aureus
# Description: The library was screened for peptides able to disrupt DnaN-DnaN interaction of the Staphylococcus replisome by transforming into the R-BTH strain SC01 containing interacting Cya fusion proteins. Cells were plated on plates containing 5-FOA and 1 mM IPTG to induce expression of the cyclic peptides. We readily identified clones where expressed peptides restored cell viability in the presence of 5-FOA (Fig. 3A). To initially assess the activity of the selected peptides we determined their ability to reduce DnaN-DnaN interaction in the original two hybrid system.
# Figure 3 Identification of peptides that interfere with DnaN-DnaN interaction. […] After screening of our SICLOPPS library, growth was restored in 7 clones.A. (B) The cyclic peptides identified in (A) were expressed in the original bacterial two-hybrid strain (BTH101) containing T18:DnaN and DnaN:T25 fusion plasmids and the level of β-galactosidase activity was determined as described in Materials and Methods.
# Bacterial two-hybrid assay was performed as described previously. Derivatives of plasmids pUT18 and p25N encoding replication proteins were constructed by cloning PCR-amplified DNA fragments in frame with the T25 and T18 fragments of cya. T18 and T25 fusions were transformed into BTH101, and plated on plates containing 40 μg/ml of 5-bromo-4-chloro-indolyl-β-D-galactoside (X-gal) and relevant antibiotics. […] For β-galactosidase assays, cells were grown exponentially at 30°C in LB supplemented with 0.5 mM IPTG, and β-galactosidase activities were measured as described by.
# S. epidermidis = format: cell-based, Staphylococcus epidermidis; conditions: cyclic peptides; data not shown
# Description: The antibacterial activities of the purified peptides were determined against Staphylococcus epidermidis and S. aureus. […] We can conclude that some but not all of the identified cyclic peptides are able to penetrate the bacterial membrane to find their intracellular target. […] As expected none of the peptides isolated had any activity towards E. coli, whereas they inhibited growth of B. subtilis, another gram positive bacterium (data not shown).
# S. aureus strain 8325-4 [3] = experiment: Fluorescence microscopy with DAPI staining (cell size, DNA content); format: cell-based, Staphylococcus aureus; conditions: 50 μg/ml; LB, 37°C
# Excerpt: The effect of peptides III-5 and III-6 on cell size and DNA content was visualized by fluorescence microscopy. […] A likely explanation is that peptide III-6, through its inhibitory effect on DNA synthesis, also results in an inability for cells to divide. Similar observations have been made for E. coli where failure to complete chromosome replication result in division inhibition and filamentation.
# Figure 7 Peptide III-6 affect S. aureus cell size, morphology and DNA content. S. aureus strain 8325−4 was grown exponentially at 37°C in LB medium. […] Cells were stained with DAPI prior to fluorescence microscopy (Materials and Methods).
# S. aureus strain 8325-4 or B. subtilis strain 168 was grown exponentially at 37°C in LB. […] The cells were stained with the live/dead stain according to the manufacturer. Phase-contrast and fluorescence images were acquired using a Leica DM5000B microscope with a×100 HCX PL APO NA 1.4 objective and a Leica DFC350FX cooled charge-coupled device camera controlled through FW4000 software (version 1.2.1; Leica Microsystems).
# [4] = tested on: Protein synthesis in S. aureus strain 8325-4; experiment: Protein synthesis, incorporation of 35S-methionine; format: cell-based, Staphylococcus aureus; conditions: 50 μg/ml peptide; for at least 180 minutes; repeated 3 times
# Description: (§1) In order to test the direct effects of peptides III-5 and III-6 on DNA replication in S. aureus, strain 8325-4 was grown exponentially at 37°C in LB medium. Incorporation of ^3H-thymidine into the DNA was determined at various times after addition of 50 μg/ml of peptides III-5 or III-6. […] Protein synthesis, determined as incorporation of ^35S-methionine, was unaffected by peptide addition for at least 180 minutes (Fig. S1) which is well after the onset of DNA synthesis inhibition. Therefore the DNA replication inhibition is not a consequence of a more general effect on protein synthesis, and we conclude that peptide III-5 and III-6 inhibits replication by interfering with the dnaN encoded β-clamp.
# S. aureus strain 8325-4 was grown exponentially in LB supplemented with ^35S-methionine. At T=0 peptide III-5 (grey triangles) or III-6 (green squares) was added to a final concentration of 50 μg/ml. Addition of buffer (red filled circles) served as control. Samples were taken at the indicated time-points and incorporation of ^35S into protein was measured by liquid scintillation counting of TCA precipitated material. The experiment was repeated 3 times with similar result. The result from one experiment is shown.
# [5] = tested on: DNA replication in S. aureus strain 8325-4; experiment: DNA synthesis, incorporation of 3H-thymidine; format: cell-based, Staphylococcus aureus; conditions: 50 μg/ml peptide; LB, 37°C; TCA precipitate, scintillation counting; repeated 3 times
# Description: as §1
# Figure 5 Peptides III-5 and III-6 Inhibit DNA replication. […] Samples were taken at the indicated time-points and incorporation of ^3H into DNA was measured by liquid scintillation counting of TCA precipitated material. […]
# For measuring DNA and protein synthesis, S. aureus strain 8325−4 was grown exponentially at 37°C in LB supplemented with 0.2 ml ^3H-thymidine (20 Ci/mmol,1 mCi/ml; Perkin Elmer Inc.) and uridine (50 μg/ml). […] The incorporation of ^3H into DNA was determined using a 1450 MicroBeta TriLux Microplate and Scintillation and Luminiscence counter (Perkin Elmer Inc.).
# S. aureus strain 8325-4 [6] = experiment: Growth (colony forming units) of S. aureus with or without DnaN overproduction after peptide addition; format: cell-based, Staphylococcus aureus; conditions: 40 μg/ml peptide, LB, 37°C, repeated 4 times
# Description: To ensure that the antibacterial effects of peptides III-5 and III-6 were the result of direct interaction of these peptides with the β-clamp, we decided to overproduce DnaN in S. aureus cells. The dnaN gene was cloned under control of the cadmium induclible pCAD promoter of plasmid pCN51 [37]. Cells were grown exponentially at 37°C in LB medium and 3 hours prior to peptide addition expression of dnaN was induced by addition of 10 μM CdCl2. At time T = 0 peptides III-5 or III-6 were added to a final concentration of 40 μg/ml which is very close to the MIC value for both of these peptides (Fig. 4).
# Figure 4 Overproduction of DnaN in S. aureus relieves the growth inhibition imposed by peptides III-5 and […]. S. aureus strain 8325-4 containing either the vector plasmid pCN51 (black filled squares) or plasmid pSC141 (grey triangles) was grown exponentially at 37°C in LB medium supplemented with 10 μg/ml erythromycin. CdCl2 was added to all cultures to a final concentration of 10 μM to induce overproduction of DnaN from pSC141 three hours prior to peptide addition. At T = 0, 40 μg/ml of peptide III-5 (middle panel) or III-6 (bottom panel) was added to the cultures. The number of colony forming units was determined by plating. The experiment were repeated 4 times with similar results.
# [7] = tested on: S. aureus or S. epidermidis; format: cell-based
# Excerpt: In agreement with this none of these peptides were particularly hydrophobic or cationic (Table 4). […] This could be tested by construction of deletion mutants lacking one or more of these permeases. We synthesized and tested linear counterparts of the active peptides III-5, III-6 and III-7. […] Increased antibacterial activity of peptides due to circularization has previously been described.
# E. coli = experiment: Intracellular expression of cyclic DnaA1-86 in E. coli (growth, morphology); format: cell-based, Escherichia coli; conditions: IntC::DnaA1-86::IntN induced with 2 mM IPTG, 30°C; effect attributed mainly to the cyclic fragment
# Description: We used the SICLOPPS technology for intracellular synthesis of cyclic peptide libraries. Cyclic peptides were chosen over their linear counterparts to limit degradation by cellular proteases. We initially tested the SICLOPPS system by inserting the coding region for amino acids 1−86 (Domain I) of DnaA from E.coli between the C- and N-terminal parts of the split intein.
# Figure 2 Intracellular production of cyclic DnaA1-86. Expression of IntC::DnaA1−86::IntN was induced by addition of 2 mM IPTG to cells growing exponentially at 30°C or by plating exponential growing cells on plates containing 2 mM IPTG followed by incubation at 30C. A. Intein-DnaA precursor and splice products were visualized by Western blot using polyclonal anti-DnaA antibodies. B. Growth on LB plates containing 2 mM IPTG (top) and phase-contrast images (bottom) of expressing IntC::IntN (left) or after three hours expression of IntC::DnaA1−86::IntN (right).
# Because all cells contained a mix of precursor and splice product it was not clear which species were responsible for filamentation. We therefore mutated the splice site at the IntC-DnaA1−86 (IntC-HNS-DnaA1−86 to IntC-QYS-DnaA1−86) junction to prevent splicing.
molecule,measurement,setting,value
CO[C@@]12[C@H](COC(N)=O)C3=C(C(=O)C(C)=C(N)C3=O)N1C[C@@H]1N[C@@H]12 [mitomycin C],Increase in β-galactosidase activity (recA-lacZ),[1],about 3 fold
CC(C)C[C@@H]1NC(=O)CNC(=O)[C@H](CCC(N)=O)NC(=O)[C@H](CO)NC(=O)[C@H](CCCNC(=N)N)NC(=O)[C@H](CS)NC(=O)[C@H](CCCCN)NC(=O)[C@H](Cc2ccccc2)NC1=O [III-6] (cyclo(CRSQGLFK)),Ability to interfere with DnaN dimerization after reduction to 8-mers,"[2]; cyclic 8-mers with the sequence SXXXXXXG expressed intracellularly, not shown",retaining their ability to interfere with DnaN dimerization
same,Reduction of DnaN-DnaN interaction when produced intracellularly,"[2]; cyclic peptides expressed in E. coli, Fig. 3",efficient in reducing DnaN-DnaN interaction
same,Potency against S. epidermidis compared with S. aureus,S. epidermidis,somewhat more potent against S. epidermidis
same,Cell size,S. aureus strain 8325-4 [3],increased cell size
same,DNA distribution between cells (DAPI staining),S. aureus strain 8325-4 [3],uneven DNA distribution between cells
same,Protein synthesis (35S-methionine incorporation),[4],unaffected
same,Accumulation of DNA (3H-thymidine incorporation),[5],severely reduced accumulation of DNA
same,Bacterial growth of uninduced cultures after peptide addition,"S. aureus strain 8325-4 [6]; 8 hours duration, colony forming units",cessation of bacterial growth
same,Bacterial growth of cultures overproducing DnaN after peptide addition,S. aureus strain 8325-4 [6]; dnaN induced with 10 μM CdCl2 3 hours before (pSC141),continued growth
same,MIC values (range given for the three active cyclic peptides),[7],20−50 μg/ml
B1,Effect of intracellular expression on E. coli growth and morphology,E. coli,inhibition of growth and cell filamentation
